Series [1] deals with Salmonella typhimurium strain TA98. Description: AMES mutagenic assay, TA98 strain. The conditions noted are these: TA98, presence of S-9, 1 μg per well (positive control). On the procedure:
(§1) Mutagenic activity of test compounds and their metabolites (produced by rat liver S9 fraction) was evaluated in the Salmonella typhimurium strains TA100 and TA98 according to the Ames assay (Toxicology in vitro, (2001), 15: 105-114). […] The results are expressed as a mutagenicity ratio in comparison to solvent controls.
(§2) The results are expressed as a ratio of the number of colonies over the number of colonies in the negative control (DMSO).

The test system of series [2] is Salmonella typhimurium strain TA100. The note with it: Salmonella typhimurium. On the procedure: as §1, §2
Series [3] deals with Murine bone marrow mast cells (BMMCs). Description: IgE-mediated mast cell degranulation assay (β-hexosaminidase release). It counts as cell-based, C57BL/6J mice. On the procedure:
In vitro mast cell degranulation assay monitored by released of β-hexosaminidase. Murine bone marrow mast cells (BMMCs) are obtained by flushing bone marrow cells from the femurs of C57BL/6J mice, then cultured for 3-4 weeks in RPMI containing mouse recombinant IL-3 (30 ng/ml). RBL-2H3 is a rat basophile cell line maintained in monolayer culture in EMEM supplemented with 20% FCS, 1 mM Glutamine and 1× antibiotics. Cells were sensitized overnight with 0.2 μg/ml anti-DNP-IgE (Sigma-Aldrich D8406). […] After incubation 90 min at 37° C., the reaction was quenched by addition of 100 μl of sodium carbonate buffer (0.1M Na2CO3/NaHCO3 pH 10.0). β-hexosaminidase activity was quantified by reading plate absorbance at 405 nm with reference at 620 nm using a PolarSTAR reader plate (BMG labech).
The activity of anti-SYK compounds was tested in an IgE-mediated mast cell degranulation assay. SYK has been identified to be critical for the initiation of mast cell mediator release following the aggregation of FcεRI.

In series [4] the test system is primary human adult cardiomyocytes. Description: WST-1 cell survival/proliferation assay on human cardiomyocytes. In kind it is cell-based. The note with it: Human Cardiac Myocyte. On the procedure: WST-1 cell survival/proliferation assay (Roche Diagnostic ref No 1644807) was performed on both primary human adult cardiomyocytes and rat neonatal cardiac myocytes.
Human cardiomyocytes were isolated from normal human ventricle tissue of the adult heart and were able to proliferate for a number of passage. Neonatal ventricular Clonetics® Rat Cardiac Myocytes (P1-3) retained their contractile property and were electrophysiologically active in culture. 1.10^4 primary rat cells or 2-2.5 10^4 adult human cells were plated per well of a 96 wells plates. The cells were allowed to adhere to the plates for 5 days before drug treatment. Treatment was initiated by addition of a 2× drug solution of ½ serial dilutions ranging from 0 to 10 μM. Cells were grown for 48 h at 37° C. and then incubated with 10 μl/well of WST-1 reagent for 4 h at 37° C. The amount of formazan dye formed was quantified by its absorbance at 450 nm using a scanning multiwell spectrophotometer (MultiSkan MS, Thermo-LabSystems, France). A blank well without cells was used as a background control for the spectrophotometer and all assays were performed in triplicate.

Series [5] concerns murine model of asthma. Nature of the series: Mouse model of asthma: eosinophils recruitment in bronchio-alveolar lavage. It counts as in vivo, Balb/c male mice. On the procedure: Balb/c male mice, 8 weeks old, were purchased from Janvier (Le Genest-Saint-Isle; FRANCE) and bred in the animal facility for 4 weeks. Drugs were dissolved in drinking solvent (80% water; 10% Tween 80 and 10% isopropanediol). It was aliquoted and stored at −20° C. Each mouse received drugs twice a day. The weight of animals was calculated before and after treatment.
Mice, 9 weeks of age, were sensitized with 50 μg of ovalbumin (Sigma-Aldrich, Germany) adsorbed to 2 mg Al(OH)3 (Prolabo, France) and diluted in physiological saline (0.9% NaCl). Ovalbumin was injected intraperitoneally on days 1 and 7. Sensitization was followed by intranasal challenges with 10 μg of ovalbumin diluted in 0.9% NaCl, each day from day 18 to day 21. On days 17 to 21, animals treated with drugs received 100 μl of a solution at 15 mg/ml, at 7.5 mg/ml or at 3.75 mg/ml administered per os twice a day during 5 days. These treatments corresponded to concentration of 60 mg/mouse kg, 30 mg/mouse kg and 15 mg/mouse kg respectively.
Bronchio-alveolar lavage (BAL) was performed after the animals were disconnected from the FlexiVent®. The airways were lavaged with 5 ml (10 times 0.5 ml) ice cold 0.9% NaCl 2.6 mM EDTA. BAL samples were centrifuged at 1200 rpm for 5 minutes at 4° C. Pellet cells were collected and erythrocytes lysed by adding 1.5 ml deionized water for 30 seconds. After neutralization with 0.5 ml of 0.6M KCl, cells were centrifuged at 1200 rpm for 5 minutes at 4° C. BAL samples were used to count the total cell number and to perform cytospins (shandon, Pontoise). Cell types were identified by morphological criteria after Hemacolor (Merck) staining.
Mice were sensitized and challenged with ovalbumin as described in protocol assays above. The mice were distributed in groups of 5-6 animals that were treated twice daily with 7.5 to 60 mg/Kg of anti-SYK/KIT drugs (PO).

The target of series [6] is c-Ret mut. Nature of the series: HTRF kinase assay, c-Ret mut. In kind it is biochemical. The note with it: enzymatic determination. On the procedure:
Most of the kinases tested in this study were cloned, expressed and purified in the facilities of the inventors. They were expressed either as N-terminus hexahistidine-, hexahistidine-asparagine- or GST-tagged enzymes in a baculovirus or in a Colibacille expression system. Remaining enzymes (JAKs) were purchased from Millipore or Proqinase. For each enzyme, steady state kinetic parameters were determined and validated with known inhibitors.
The analysis of the effect of compounds on kinase activity was assessed with the HTRF® KinEASE assay (Cisbio International), an immuno-assay based on the quantification of the level of phosphorylation of a biotinylated peptide substrate using anti-phospho-specific antibody labeled with Europium (Eu^3+) cryptate. This assay comprises two steps: —an enzymatic step, during which the peptide substrate, the kinase, ATP, Mg^2+ and/or Mn^2+ are incubated with varying concentration of drug (from 0 to 10 μM); —a detection step, at the end of the reaction (stopped by addition of EDTA which chelates Mg^2+), the antibody anti-phospho peptide-Eu^3+ (emission 620 nm) and streptavidin XL-665 (emission 665 nm) are added to the reaction mix. […] Results are expressed in delta fluorescence (DF) unit defined as follow DF %=[(ratio−ratio blank)/(ratio blank)]*100, where ratio=(665 nm/620 nm)*10^4. […]

Series [7] deals with murine model of arthritis. Description: K/BxN serum mouse model of rheumatoid arthritis: ankle thickening and arthritis score. The conditions noted are these: 50 mg/kg b.i.d. In kind it is in vivo, C57Bl/6 mice. On the procedure:
K/B×N serum pools were prepared from arthritic mice at 8 weeks of age. The mice were pre-treated with SYK inhibitors by two per os administration for two days before induction of arthritis. Arthritis was induced in the C57Bl/6 mice (8 weeks of age) by intraperitoneal injection (7.5 μl serum per g weight) at days 0 and 2.
The treatment with SYK inhibitors was continued for 13 days. The control mice were injected with solvent before the induction of arthritis and during the course of the disease. The compounds were dissolved in a solution containing 10% of Tween 80 and 10% 1-2 propandiol. It was prepared before administration.
Ankle thickening measure, being defined as the difference in ankle thickness from the day 0, was measured using a precision calliper. Arthritis/clinical score was defined by sum of scores of each lim (0 no disease; 1 mild swelling of paw or of just of few digits; 2 clear joint inflammation; 3 severe joint inflammation) maximum score=12.
K/B×N was a murine model of spontaneous rheumatoid arthritis that mimics many of the clinical and histological features of human disease with synovitis predominantly in the distal small joints. Arthritis was induced by intraperitoneal injection of arthritis serum of K/B×N mice at days 0 and 2 as described in protocol assays above. Compound 001 was tested at 15 and 50 mg/kg/day b.i.d. and compared with Masitinib at 50 mg/kg/day b.i.d., an AB Science drug candidate for treating rheumatoid arthritis (Arthritis Res Ther., (2009), 11(3):R95). Ankle thickening and arthritis score were used to monitor the in vivo activity of the compounds.

Where [8] appears, read: Experiment #1, 2 × 30 mg/kg/day PO.

For `Nc1ccc2cc3ccccc3cc2c1` [Compound 2-AM, 2-Anthramine, reference compound], the Ratio treated/solvent came out at 138.1 in series [1] and 18.1 in series [2].
Take `COc1cc(Nc2ncc(F)c(Nc3ccc4c(n3)NC(=O)C(C)(C)O4)n2)cc(OC)c1OC` [Compound R406]: the entries for the “β-hexosaminidase activity (% control untreated cells)” value in series [3] (0.01 μM), in series [3] (0.1 μM) and in series [3] (1 μM) were 78 ± 11%, 16 ± 6% and 3 ± 3%, respectively. Further, in series [4] (1 μM), the “% cell viable at 1 μM, Hu-CM” value was −18%. Moreover, the IC50 (usually the point on the concentration scale where inhibition reaches its midpoint) in series [4] (48 h, read-out: Drug-induced cytotoxicity IC50, Hu-CM) is 2600 nM; in series [6] it was 500 nM. In series [5] (setting [8]), the “Percentage of Eosinophils recruitment in Bronchio-alveolar lavage (BAL)” value is recorded as −31%.
For the compound `Cc1ccc(NC(=O)c2ccc(CN3CCN(C)CC3)cc2)cc1Nc1nc(-c2cccnc2)cs1` [Masitinib], the “Ankle Thickening Score” value in series [7] was −27% P < 0.05. For the same compound, in series [7], the “Arthritis Score” value is listed as −15%. Besides, the “Percentage of Eosinophils recruitment in Bronchio-alveolar lavage (BAL)” value in series [5] (Experiment #1, 2 × 7.5 mg/kg/day PO) is −15%; in series [5] (Experiment #1, 2 × 25 mg/kg/day PO), −35%; in series [5] (setting [8]), −56%; in series [5] (Experiment #2, 2 × 30 mg/kg/day PO), −47%.

The values are drawn from US10053455B2, “Diazaspiroalkaneone-substituted oxazole derivatives as spleen tyrosine kinase inhibitors” (AB SCIENCE, priority 2014, dated 2018).
